Results taken from patent publication US20260317313A1, “DNA Polymerase Theta Inhibitors Containing Non-Saturated 5-Membered Heterocyclic Rings and Use Thereof” (Thomas Jefferson University, priority 2022, published 2026).
Like-named read-outs stand apart in the source and are kept apart here.

Columns and labels:
[1] = molecular target: T1, recombinant human Polq polymerase domain (residues 1792-2590) (Homo sapiens, UniProt O75417); experiment: Cy5 fluorescence assay of Polq polymerase enzymatic activity; type: biochemical; conditions: 60 nM primer-template, 50 uM dNTPs, 37° C., 18 min, 2.5% DMSO, triplicate
T1 sequence (O75417 1792-2590): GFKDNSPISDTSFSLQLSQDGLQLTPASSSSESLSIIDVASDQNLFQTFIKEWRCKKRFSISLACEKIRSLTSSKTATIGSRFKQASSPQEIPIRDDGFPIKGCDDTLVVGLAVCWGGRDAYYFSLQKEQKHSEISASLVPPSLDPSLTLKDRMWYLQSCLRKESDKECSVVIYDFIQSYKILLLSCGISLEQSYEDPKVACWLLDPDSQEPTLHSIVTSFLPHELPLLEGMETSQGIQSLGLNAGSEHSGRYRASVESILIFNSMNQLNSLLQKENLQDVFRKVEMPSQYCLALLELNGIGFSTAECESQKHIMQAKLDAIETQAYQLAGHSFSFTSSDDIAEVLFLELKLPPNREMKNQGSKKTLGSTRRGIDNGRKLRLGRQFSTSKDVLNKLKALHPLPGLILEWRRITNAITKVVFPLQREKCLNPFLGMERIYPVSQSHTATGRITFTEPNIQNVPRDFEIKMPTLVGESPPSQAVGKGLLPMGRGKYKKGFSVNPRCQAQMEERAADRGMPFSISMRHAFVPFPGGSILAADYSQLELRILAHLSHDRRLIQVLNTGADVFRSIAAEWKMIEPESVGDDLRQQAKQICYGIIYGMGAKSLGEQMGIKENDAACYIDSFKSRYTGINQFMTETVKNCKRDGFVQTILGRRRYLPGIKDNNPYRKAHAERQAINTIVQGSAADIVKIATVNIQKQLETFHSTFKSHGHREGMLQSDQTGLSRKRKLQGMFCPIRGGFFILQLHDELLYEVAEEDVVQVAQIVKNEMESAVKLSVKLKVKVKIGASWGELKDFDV
Procedure: The following Cy5 fluorescence assay was used to measure the ability of compounds to inhibit Polq polymerase domain in vitro. The fluorescent based assay was performed as follows: 60 nM of the pre-annealed primer-template containing a 5′ Cy5 fluorophore conjugated template strand (SEQ ID NO 6: 5′-/5Cy5/ […] GGACAG-3′), a downstream complementary oligo conjugated with a 3′ Blackhole quencher (SEQ ID NO 7: 5′-CTAAGCTCACAGTG/3IAbRQSp/-3′) and a primer strand (SEQ ID NO 8: 5′-CTGTCCTGCATGATG-3′) was mixed with 50 uM 2′-deoxyribonucleoside triphosphates (dNTPs), 0.1 mg/mL Bovine serum albumin (BSA), 0.01% NP-40, 10% glycerol, 1 mM dithiothreitol (DTT), 10 mM MgCl2, 25 mM TrisHCl pH 7.8 in the presence of 2.5% DMSO with or without various concentrations (7-point dilution series) of Polq small molecule inhibitors represented by Formula I at 37° C. in a volume of 40 μL.

BRCA2-WT DLD1 cells = experiment: Survival of BRCA2-WT DLD1 cells; type: cell-based; conditions: n=3
BRCA2-WT HCT116 cells = experiment: Survival of BRCA2-WT HCT116 cells; type: cell-based; conditions: n=3
BRCA2-null DLD1 cells = experiment: Survival of BRCA2-null DLD1 cells; type: cell-based; conditions: as compared to BRCA2-WT DLD1 cells; n=3
BRCA2-null HCT116 cells = experiment: Survival of BRCA2-null HCT116 cells; type: cell-based; conditions: as compared to BRCA2-WT HCT116 cells; n=3
[2] = Polq IC50, 5 nM Polq polymerase domain

Row | Structure (SMILES) | IC50 [1, 2] [nM] | further results
1 | [2H]C([2H])([2H])N(C(=O)Cc1c(-c2cn[nH]c2)cc(C(F)(F)F)cc1C(F)(F)F)c1ccc(F)cc1 [Example 23, N-(4-fluorophenyl)-N-(methyl-d3)-2-[2-(1H-pyrazol-4-yl)-4,6-bis(trifluoromethyl)phenyl]acetamide] |  | IC50 ([1]; 5 nM Polq polymerase domain, read-out: Polq IC50): 46.8 nM
2 | [2H]C([2H])([2H])N(C(=O)Oc1c(-c2cn(C3CS(=O)(=O)CC3O)nn2)cc(C(F)(F)F)cc1C(F)(F)F)c1ccc(F)c(Cl)c1F (centres unmarked) [Example 24, 2-[1-(4-hydroxy-1,1-dioxo-1λ^6-thiolan-3-yl)-1H-1,2,3-triazol-4-yl]-4,6-bis(trifluoromethyl)phenyl N-(3-chloro-2,4-difluorophenyl)-N-(methyl-d3)carbamate] | 13.6 | 
3 | [2H]C([2H])([2H])N(C(=O)Oc1c(-c2cnn(CC(O)CN(C)C)c2)cc(C(F)(F)F)cc1C(F)(F)F)c1ccc(F)cc1 (centres unmarked) [Example 25, 2-{1-[3-(dimethylamino)-2-hydroxypropyl]-1H-pyrazol-4-yl}-4,6-bis(trifluoromethyl)phenyl N-(4-fluorophenyl)-N-(methyl-d3)carbamate] | 24 | 
4 | [2H]C([2H])([2H])N(C(=O)Oc1c(-c2cn[nH]c2)cc(C(F)(F)F)cc1C(F)(F)F)c1ccc(F)cc1 [Example 26, 2-(1H-pyrazol-4-yl)-4,6-bis(trifluoromethyl)phenyl 4-fluorophenyl(methyl-d3)carbamate] | 2 | resistance of BRCA2-WT DLD1 cells to Polqi (BRCA2-WT DLD1 cells): mostly resistant; resistance of BRCA2-WT HCT116 cells to Polqi (BRCA2-WT HCT116 cells): mostly resistant; survival of BRCA2-null DLD1 cells (BRCA2-null DLD1 cells): significantly reduced; survival of BRCA2-null HCT116 cells (BRCA2-null HCT116 cells): significantly reduced
5 | [2H]C([2H])([2H])N(C(=O)Oc1c(-c2cnn(CC(N)=O)c2)cc(C(F)(F)F)cc1C(F)(F)F)c1ccc(F)cc1 [Example 27, 2-(1-(2-amino-2-oxoethyl)-1H-pyrazol-4-yl)-4,6-bis(trifluoromethyl)phenyl 4-fluorophenyl(methyl-d3)carbamate] | 1.8 | resistance of BRCA2-WT DLD1 cells to Polqi (BRCA2-WT DLD1 cells): mostly resistant; resistance of BRCA2-WT HCT116 cells to Polqi (BRCA2-WT HCT116 cells): mostly resistant; survival of BRCA2-null DLD1 cells (BRCA2-null DLD1 cells): significantly reduced; survival of BRCA2-null HCT116 cells (BRCA2-null HCT116 cells): significantly reduced
6 | [2H]C([2H])([2H])N(C(=O)Oc1c(-c2cn(C3CN(S(C)(=O)=O)C3)nn2)cc(C(F)(F)F)cc1C(F)(F)F)c1ccc(F)c(Cl)c1F [Example 28, 2-[1-(1-methanesulfonylazetidin-3-yl)-1H-1,2,3-triazol-4-yl]-4,6-bis(trifluoromethyl)phenyl N-(3-chloro-2,4-difluorophenyl)-N-(methyl-d3)carbamate] | 3.2 | 
7 | [2H]C([2H])([2H])N(C(=O)Oc1c(-c2cn(CC(O)CNC)nn2)cc(C(F)(F)F)cc1C(F)(F)F)c1ccc(F)cc1 (centres unmarked) [Example 29, 2-{1-[2-hydroxy-3-(methylamino)propyl]-1H-1,2,3-triazol-4-yl}-4,6-bis(trifluoromethyl)phenyl N-(4-fluorophenyl)-N-(methyl-d3)carbamate] | 3.4 | 
8 | [2H]C([2H])([2H])N(C(=O)Oc1c(-c2cn(CC(O)CN(C)C)nn2)cc(C(F)(F)F)cc1C(F)(F)F)c1ccc(F)cc1 (centres unmarked) [Example 30, 2-{1-[3-(dimethylamino)-2-hydroxypropyl]-1H-1,2,3-triazol-4-yl}-4,6-bis(trifluoromethyl)phenyl N-(4-fluorophenyl)-N-(methyl-d3)carbamate] | 1.6 | 
9 | [2H]C([2H])([2H])N(C(=O)Oc1c(-c2nnco2)cc(C(F)(F)F)cc1C(F)(F)F)c1ccc(F)cc1 [Example 31, 2-(1,3,4-oxadiazol-2-yl)-4,6-bis(trifluoromethyl)phenyl N-(4-fluorophenyl)-N-(methyl-d3)carbamate] | 5.6 | 
10 | [2H]C([2H])([2H])N(C(=O)Oc1c(-n2cncn2)cc(C(F)(F)F)cc1C(F)(F)F)c1ccc(F)cc1 [Example 32, 2-(1H-1,2,4-triazol-1-yl)-4,6-bis(trifluoromethyl)phenyl N-(4-fluorophenyl)-N-(methyl-d3)carbamate] | 18 | 
11 | [2H]C([2H])([2H])N(C(=O)Oc1c(-c2cn(C3CN(S(=O)(=O)CCN)C3)nn2)cc(C(F)(F)F)cc1C(F)(F)F)c1ccc(F)c(Cl)c1F [Example 33, 2-{1-[1-(2-aminoethanesulfonyl)azetidin-3-yl]-1H-1,2,3-triazol-4-yl}-4,6-bis(trifluoromethyl)phenyl N-(3-chloro-2,4-difluorophenyl)-N-(methyl-d3)carbamate] | 2.9 | 
12 | [2H]C([2H])([2H])N(C(=O)Oc1c(-n2cn[nH]c2=O)cc(C(F)(F)F)cc1C(F)(F)F)c1ccc(F)cc1 [Example 34, 2-(5-oxo-4,5-dihydro-1H-1,2,4-triazol-4-yl)-4,6-bis(trifluoromethyl)phenyl N-(4-fluorophenyl)-N-(methyl-d3)carbamate] | 51 | 
13 | [2H]C([2H])([2H])N(C(=O)Oc1c(-n2cnn(CC(O)CNC)c2=O)cc(C(F)(F)F)cc1C(F)(F)F)c1ccc(F)cc1 (centres unmarked) [Example 35, 2-{1-[2-hydroxy-3-(methylamino)propyl]-5-oxo-4,5-dihydro-1H-1,2,4-triazol-4-yl}-4,6-bis(trifluoromethyl)phenyl N-(4-fluorophenyl)-N-(methyl-d3)carbamate] | 104 | 
14 | CN(C(=O)Oc1c(-c2cn(CCOCCOCCC(=O)O)nn2)cc(C(F)(F)F)cc1C(F)(F)F)c1ccc(F)cc1 [Example 36, 3-(2-(2-(4-(2-(((4-fluorophenyl)(methyl)carbamoyl)oxy)-3,5-bis(trifluoromethyl)phenyl)-1H-1,2,3-triazol-1-yl)ethoxy)ethoxy)propanoic Acid] | 3 | 
15 | Cc1ncsc1-c1ccc(CNC(=O)[C@@H]2C[C@@H](O)CN2C(=O)[C@@H](NC(=O)CCOCCOCCn2cc(-c3cc(C(F)(F)F)cc(C(F)(F)F)c3OC(=O)N(C)c3ccc(F)cc3)nn2)C(C)(C)C)cc1 [Example 37, 2-(1-(2-(2-(3-(((S)-1-((2S,4R)-4-hydroxy-2-((4-(4-methylthiazol-5-yl)benzyl)carbamoyl)pyrrolidin-1-yl)-3,3-dimethyl-1-oxobutan-2-yl)amino)-3-oxopropoxy)ethoxy)ethyl)-1H-1,2,3-triazol-4-yl)-4,6-bis(trifluoromethyl)phenyl (4-fluorophenyl)(methyl)carbamate] | 4.6 | 
